Where “and” joins values, the source holds several entries; their conditions need not be identical. Equal values may be shown once. Read-outs that look alike come from different tables or passages of the source.
Columns and labels:
active SAH hydrolase = biological target: T1, active SAH hydrolase (Bos taurus, UniProt Q3MHL4); test: 3H-adenosine displacement using active SAH hydrolase; format: binding, bovine
T1 construct: SAH hydrolase is purified with classical chromatographical methods to homogeneity from organs e.g. from bovine kidney; from tissue; host or cells: bovine kidney
T1 sequence (Q3MHL4 2-432 limits assumed): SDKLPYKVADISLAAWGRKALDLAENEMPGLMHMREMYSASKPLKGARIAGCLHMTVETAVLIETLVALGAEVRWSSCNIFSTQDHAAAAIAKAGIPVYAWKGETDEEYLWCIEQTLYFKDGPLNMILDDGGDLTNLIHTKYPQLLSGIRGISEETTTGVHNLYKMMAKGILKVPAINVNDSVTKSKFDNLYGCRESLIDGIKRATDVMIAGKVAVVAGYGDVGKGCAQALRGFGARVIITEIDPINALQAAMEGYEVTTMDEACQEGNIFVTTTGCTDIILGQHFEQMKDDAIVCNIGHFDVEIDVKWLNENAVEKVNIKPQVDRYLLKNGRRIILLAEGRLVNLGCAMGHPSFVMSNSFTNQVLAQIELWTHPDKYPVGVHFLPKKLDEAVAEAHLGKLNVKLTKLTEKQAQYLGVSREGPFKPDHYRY
Procedure: SAH hydrolase is purified with classical chromatographical methods to homogeneity from organs e.g. from bovine kidney. Fresh bovine kidney (450 g), obtained from the local slaughterhouse were homogenized in two volumes of 50 mM potassium phosphate buffer pH 7.0, 1 mM DTT, 1 mM EDTA and 10 mM PMSF. The homogenate was centrifuged at 20000×g for 60 min. […] After centrifugation at 20000×g for 30 min the precipitate was disolved in 300-400 ml 20 mM Tris/HCl pH 7.5, 1 mM DTT and 1 mM EDTA and dialyzed against the same buffer.

reduced SAH hydrolase = biological target: T2, reduced SAH hydrolase (Bos taurus, UniProt Q3MHL4); test: 3H-adenosine displacement using reduced SAH hydrolase; format: binding, bovine
T2 construct: SAH hydrolase is purified with classical chromatographical methods to homogeneity from organs e.g. from bovine kidney; from tissue; host or cells: bovine kidney
T2 sequence (Q3MHL4 2-432 limits assumed): T1 sequence (Q3MHL4 2-432 limits assumed)
Procedure: 100 μl reduced SAH hydrolase (1 μg/300 μl)
50 μl buffer—20 mM Tris, 40 mM Hepes pH 7.0
Therefore the samples are incubated over night. The assay mixture is separated through nitrocellulose filters with a filtration equipment.

[1] = active SAH hydrolase, read-out: EC50 values of 3H-adenosine displacement, active SAH hydrolase
[2] = reduced SAH hydrolase, read-out: EC50 values of 3H-adenosine displacement, reduced SAH hydrolase

Row | Compound | EC50 (active SAH hydrolase; [1]) [µM] | EC50 (reduced SAH hydrolase; [2]) | EC50 (active SAH hydrolase) [µM] | EC50 (reduced SAH hydrolase) [µM]
1 | Nc1ncnc2c1ncn2[C@H]1C[C@H](O)[C@@H](CO)O1 [2′-deoxyadenosine] | 0.094 | 0.63 µM | – | –
2 | Nc1ncnc2c1ncn2[C@@H]1O[C@H](COP(=O)(O)OP(=O)(O)O)[C@@H](O)[C@H]1O [ADP] | 10 | > 100 µM | – | –
3 | Nc1ncnc2c1ncn2[C@@H]1O[C@H](COP(=O)(O)O)[C@@H](O)[C@H]1O [AMP] | 10 | 100 µM and > 100 µM | – | –
4 | CCNC(=O)[C@H]1O[C@@H](n2cnc3c(N)ncnc32)[C@H](O)[C@@H]1O [NECA] | 0.24 | > 100 µM | – | –
5 | Nc1ncnc2c1ncn2[C@@H]1O[C@H](CSCC[C@H](N)C(=O)O)[C@@H](O)[C@H]1O [SAH, S-adenosylhomocysteine] | 0.246 | 0.4 µM | – | –
6 | Nc1ncnc2nc[nH]c12 [adenine] | 11.5 | > 100 µM | – | –
7 | N[C@@H](CCS)C(=O)O [homocysteine] | 5 | 5 µM | – | –
8 | OC[C@H]1O[C@@H](n2cnc3c(O)ncnc32)[C@H](O)[C@@H]1O [inosine] | 10 | 10 µM | – | –
9 | Cn1c(=O)c2[nH]cnc2n(C)c1=O [theophylline] | – | – | > 100 | > 100
10 | diadenosine-dialdehyde | 0.18 | 10 µM | – | –

Source: patent US6395256B1 (priority 1997, dated 2002)
